Test results as given in US20260365855A1, “TARGETED QUINOCYANINE DYES FOR THE INTRAOPERATIVE DELINEATION OF CANCER MARGINS” (THE TRUSTEES OF THE UNIVERSITY OF PENNSYLVANIA, priority 2022, published 2026).
Entries after “also recorded” stand apart in the source; their conditions may differ.

Key:
[1] = Absorbance spectra; type: physicochemical; details: 5 μM in DMSO
Experimental: Absorbance spectra. The absorbances for compound 1 and compound 2 were obtained using a PerkinElmer Lambda 5 measuring absorbances in 1 nm steps from 500 to 1100 nm. The absorbance spectrum for compound 3 was obtained using a JASCO VI 70 measuring in 1 nm steps from 850 to 1150 nm. All compounds were dissolved in DMSO at a concentration of 5 μM.
Synthesis of compound 1, compound 2 and compound 3 was verified by MALDI-TOF mass spectrometry with further confirmation by ^1H-NMR.

[2] = Emission spectra; type: physicochemical; details: for NIR-II fluorescence: absorbance and emission spectra, DMSO
Experimental: Emission spectra. The emissions for compounds 1, 2 and 3 were obtained using a Horiba QuantaMaster with excitation at 900 nm and emissions recorded in 1 nm steps from 925 to 1300 nm. […]
Compound 3 has a maximum absorbance at 942 nm and maximum emission at 979 nm. The emission intensities were determined with excitation at 900 nm.

[3] = NIR-II fluorescence of compound 1 vs. JAS239 and ICG (plate imaging, IR Vivo); type: physicochemical; details: for NIR-II emission: emission 1,000-1,250 nm, DMSO, no tissue; for NIR-II emissions; excitation requirement: discussion of NIR-I fluorophores, require excitation with a NIR-I laser
Experimental: NIR-II Fluorescence of Compound 1 vs. JAS239 and ICG.
Compound 1, JAS239, and ICG were dissolved in DMSO and added to a 96-well black-well clear-bottom plate at concentrations from 1 μM to 100 μM. The plate was then imaged using the PhotonEtc IR Vivo using the NIR-II emission filter (1000-1250 nm) with excitation at 760 nm, 808 nm, 890 nm, or 940 nm.
Dyes were excited with excitation lasers at 760, 808, 890, and 940 nm and emissions were measured between 1,000 and 1,250 nm.

[4] = test system: KLN 205 cells; assay: Cell uptake (NIR-II emission of cell lysates); type: cell-based; details: 10 μM, 2 h, 37 °C; lysed with 0.5% Triton X-100
Experimental: KLN 205 cells were seeded into an 8 chamber slide at 15,000 cells/well. Cells were incubated overnight at 37 °C and 5% CO2. Cells were then treated in 500 μL with 10 μM of compound 1, compound 2 or compound 3, or with vehicle (DMSO). The slide was incubated for 2 hours with treatment at 37 °C and 5% CO2.
Following treatment, the solution was aspirated, and cells were rinsed twice with 500 μL of ice-cold DPBS. Triton X-100 was diluted to be 0.5% Triton, and 500 μL of this solution were added to each chamber for 10 min at 37 °C and 5% CO2 to lyse the cells. 100 μL were removed from each chamber and added to a 96-well black-well clear-bottom plate. The plate was then imaged for NIR-II emission using the PhotonEtc IR Vivo with excitation at 760, 808, 890, or 940 nm.
Cell uptake of compound 1, compound 2 and compound 3 was evaluated by incubating KLN 205 cells in 10 μM of compound 1, compound 2 and compound 3, or with DMSO for 2 hrs. Following incubation, cells were rinsed twice with ice-cold DPBS before lysing by treatment with Triton. The lysates were then transferred to a 96-well black-well clear-bottom plate and imaged for NIR-II fluorescence in the IR Vivo, as shown in FIG. 4.

[5] = test system: Athymic Nu/Nu mice; assay: In vivo imaging after tail vein injection; details: 40 nmol via tail vein
Experimental: Athymic Nu/Nu mice were injected with 40 nmol compound 1 through the tail vein in Normal Saline and filtered through a 0.22 μm filter.

[6] = Depth penetration comparisons of compound 1 vs. JAS239 and ICG through chicken breast tissue
Experimental: Depth Penetration Comparisons of Compound 1 vs. JAS239 and ICG.
Compound 1, JAS239, and ICG were diluted in DMSO and placed in a 96-well black-well clear-bottom plate at concentrations from 0.1 μM to 100 μM. The plate was then imaged using the PhotonEtc IR Vivo using the NIR-II emission filter with excitation at 760, 808, 890, or 940 nm. Wells were then covered with thinly sliced raw chicken breast tissue from 1 mm to 3 mm thick. Imaging was then repeated for each tissue thickness.
Chicken breast tissue was layered over wells containing varying concentrations of each fluorophore in 1 mm sections. Fluorescence in the NIR-II window was measured following excitation at 760, 808, 890, and 940 nm. […] Tissue scattering, absorption, and autofluorescence decreases at increasing wavelengths of light. Thus, the improved resolution of compound 1 with increasing wavelength of excitation laser likely resulted from improved tissue penetration of the excitation laser. Compound 1 has a maximum absorption at 970 nm resulting in strong excitation of the probe and fluorescence conversion.

[7] = NIR-II range; cited from earlier work
[8] = 5 μM in DMSO, excitation at 900 nm
[9] = excitation lasers 890 and 940 nm
[10] = excitation lasers 760 and 808 nm

maximum absorbance [1] [nm] | maximum emission [2, 8] [nm] | NIR-II fluorescence [2] | NIR-II emission compared to ICG ([3]; IR Vivo, excited near its absorbance maximum) | NIR-II emission [3, 9] | distribution in ventral image ([5]; 5 mins after injection) | distribution in ventral image ([5]; 2 hours after injection) | NIR-II emission [3, 10] | Compound | absorbance maxima, shift compared to compound 3 [1] | emission intensity (comparison of compounds 1, 2 and 3) [2, 8] | emission maxima, shift compared to compound 3 [2, 8] | NIR-II fluorescence of cell lysates (cell uptake) [4] | NIR-II emissions; excitation requirement [3] | NIR-II emission intensity, no tissue present [6] | NIR-II fluorescence (background statement) [7]
970 | 1007 | measurable NIR-II fluorescence |  |  |  |  |  | 4-((E)-2((E)-2-chloro-3-(2-((Z)-1-hydroxyethylquinolin-4(JH)-ylidene)-ethylidene)cyclohex-1-en-1-yl)vinyl)-1-hydroxyethylquinolin-1-ium chloride [compound 2] | further shifted into the NIR-II window compared to compound 3 |  | further shifted into the NIR-II window compared to compound 3 | measurable emissions; also recorded: measurable fluorescence in the NIR-II window |  |  | 
942 | 979 | measurable NIR-II fluorescence |  |  |  |  |  | OCCN1C=C/C(=C/C=C/C=C/C=C/c2cc[n+](CCO)c3ccccc23)c2ccccc21.[Cl-] [compound 3, l-(2-hydroxyethyl)-4-((JE,3E,5E)-7-((Z)-J-(2-hydroxyethyl)-quinoline-4(JH)-ylidene)hepta-1,3,5-trien-1-yl)quinoline-1-ium chloride] |  |  |  | no fluorescence was observed |  |  | 

More lines, now with the values behind:

Compound | maximum absorbance [1] [nm] | maximum emission [2, 8] [nm] | NIR-II fluorescence [2] | NIR-II emission compared to ICG ([3]; IR Vivo, excited near its absorbance maximum) | NIR-II emission [3, 9] | distribution in ventral image ([5]; 5 mins after injection) | distribution in ventral image ([5]; 2 hours after injection) | NIR-II emission [3, 10] | absorbance maxima, shift compared to compound 3 [1] | emission intensity (comparison of compounds 1, 2 and 3) [2, 8] | emission maxima, shift compared to compound 3 [2, 8] | NIR-II fluorescence of cell lysates (cell uptake) [4] | NIR-II emissions; excitation requirement [3] | NIR-II emission intensity, no tissue present [6] | NIR-II fluorescence (background statement) [7]
CCN1C=C/C(=C/C=C2\CCCC(/C=C/c3cc[n+](CC)c4ccccc34)=C2Cl)c2ccccc21.[I-] [compound 1, 4-((E)-2((E)-2-chloro-3-(2-((Z)-J-ethylquinolin-4(JH)-ylidene)-ethylidene)cyclohex-1-en-1-yl)vinyl)-J-ethylquinolin-1-ium iodide] | 970 | 1010 | measurable NIR-II fluorescence | comparable NIR-II emissions to ICG | strong NIR-II signal; also recorded: only compound 1 had measurable fluorescence in the NIR-II window | in the liver | in the throat, liver and intestines |  | further shifted into the NIR-II window compared to compound 3 | most intense emission; also recorded: highest fluorescence with an emission maximum in the NIR-II window | further shifted into the NIR-II window compared to compound 3 | measurable emissions; also recorded: measurable fluorescence in the NIR-II window |  |  | 
CC1(C)C(=C/C=C/C=C/C=C/C2=[N+](CCO)c3ccccc3C2(C)C)N(CCO)c2ccccc21 [JAS239] |  |  |  |  | disappeared |  |  | strongest NIR-II emissions |  |  |  |  | measurable emissions in the NIR-II window |  | 
CC1(C)C(/C=C/C=C/C=C/C=C2\N(CCCCS(=O)(=O)O)c3ccc4ccccc4c3C2(C)C)=[N+](CCCCS(=O)(=O)[O-])c2ccc3ccccc3c21 [ICG, indocyanine green] |  |  |  |  | disappeared |  |  | strongest NIR-II emissions |  |  |  |  | measurable emissions in the NIR-II window | most intense emissions in the NIR-II window | measurable fluorescence at even longer wavelengths of light in the near-infrared II (NIR-II) range
